Assay results taken from ChEMBL document CHEMBL1914362, “Highlights of marine invertebrate-derived biosynthetic products: their biomedical potential and possible production by microbial associants” (Bioorg Med Chem, 2011).

How the values were obtained:
HT-29 = assay: Cytotoxicity against human HT-29 cells; format: functional, cell-based
HCT-116 = assay: Cytotoxicity against human HCT116 cells; format: functional, cell-based
[1] = Irreversible inhibition of 20S proteasome

| Compound | IC50 (HT-29) | other results |
| --- | --- | --- |
| C=CC(C)(C)c1[nH]cnc1/C=C1\NC(=O)[C@H](Cc2ccccc2)NC1=O | 440 nM |  |
| C[C@@]12OC(=O)[C@]1([C@@H](O)[C@@H]1C=CCCC1)NC(=O)[C@@H]2CCCl [MARIZOMIB] |  | IC50 (HCT-116): 35 nM |
| CC(C)[C@H](O)[C@@]12NC(=O)[C@H](C)[C@@H]1OC2=O [OMURALIDE] |  | IC50 [1]: 49 nM |
| CC(C)(C)c1[nH]cnc1/C=c1\[nH]c(=O)/c(=C/c2ccccc2)[nH]c1=O [PLINABULIN] | 18 nM |  |
